Test results reported in patent publication US20230233569A1 (Revolution Medicines, Inc., priority 2020, published 2023).
Read-outs that look alike come from different tables or passages of the source.

Columns and labels:
NRAS Q61K = NRAS Q61K (Homo sapiens, UniProt P01111+P62937, Q61K); assay: Disruption of BRAF RBD interaction with Ras (FRET / MOA assay, with Cyclophilin A); assay type: biochemical; conditions: NRAS Q61K; read-out: NRAS Q61K FRET data IC50
In short: (§1)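 TR-FRET in 25 mM HEPES pH 7.3, 100 mM NaCl, 5 mM MgCl2, 0.1% BSA: 25 μM Cyclophilin A, 12.5 nM His6-Ras-GMPPNP, 50 nM GST-BRAF RBD with compound (10-point 3-fold series from 30 μM), 3 h at 25° C. Anti-His Eu/anti-GST APC added, 1.5 h more; IC50 from decreased FRET ratio versus DMSO.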

KRAS Q61H = KRAS Q61H (Homo sapiens, UniProt P01116+P62937, Q61H); assay: as above; assay type: biochemical; conditions: KRAS Q61H; read-out: KRAS Q61H FRET data IC50
In short: as §1

NRAS Q61R = NRAS Q61R (Homo sapiens, UniProt P01111+P62937, Q61R); assay: as above; assay type: biochemical; conditions: NRAS Q61R; read-out: NRAS Q61R FRET data IC50
In short: as §1

NRAS WT = NRAS WT (Homo sapiens, UniProt P01111+P62937); assay: as above; assay type: biochemical; conditions: NRAS WT; read-out: NRAS WT FRET data IC50
In short: as §1

NCI-H358 (K-Ras G12C) = assay: CellTiter-Glo cell viability assay, 5-day treatment; assay type: cell-based; conditions: Homo sapiens, NCI-H358, 120 h, 5-day treatment; read-out: H358 Cell Viability assay data (K-Ras G12C, IC50)
In short: (§2)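 Seeded cells received test compound by direct dispensing. On day 5 the plates sat at room temperature approximately 30 minutes, then luminescence was measured. Data were normalized to DMSO and curve-fitted with four parameters.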

Capan-1 (K-Ras G12V) = assay: as above; assay type: cell-based; conditions: Homo sapiens, CAPAN-1, 120 h, 5-day treatment; read-out: Capan-1 Cell Viability assay data (K-Ras G12V, IC50)
In short: as §2

KRAS G13D = KRAS G13D (Homo sapiens, UniProt P01116+P62937, G13D); assay: Disruption of BRAF RBD interaction with Ras (FRET / MOA assay, with Cyclophilin A); assay type: biochemical
In short: (§3)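 Compound-driven ternary complex formation between nucleotide-loaded K-Ras and Cyclophilin A was measured as loss of BRAF RBD binding. Compounds (10-point 3-fold series, top 30 μM final) were incubated 3 h at 25 °C, then anti-His Eu-W1024 (10 nM) and anti-GST allophycocyanin (50 nM) added for 1.5 h. IC50 was taken from the TR-FRET ratio decrease versus DMSO.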

KRAS G13C = KRAS G13C (Homo sapiens, UniProt P01116+P62937, G13C); assay: as above; assay type: biochemical
In short: as §3

NRAS G12C = NRAS G12C (Homo sapiens, UniProt P01111+P62937, G12C); assay: as above; assay type: biochemical
KRAS G12S = KRAS G12S (Homo sapiens, UniProt P01116+P62937, G12S); assay: as above; assay type: biochemical
In short: as §3

KRAS G12C = KRAS G12C (Homo sapiens, UniProt P01116+P62937, G12C); assay: as above; assay type: biochemical
In short: as §3

KRAS G12V = KRAS G12V (Homo sapiens, UniProt P01116+P62937, G12V); assay: as above; assay type: biochemical
In short: as §3

KRAS G12D = KRAS G12D (Homo sapiens, UniProt P01116+P62937, G12D); assay: as above; assay type: biochemical
In short: as §3

KRAS WT = KRAS WT (Homo sapiens, UniProt P01116+P62937); assay: as above; assay type: biochemical
In short: as §3

[1] = KRAS G13D, read-out: KRAS G13D FRET data IC50
[2] = read-out: KRAS G13C FRET data, IC50
[3] = NRAS G12C, read-out: NRAS G12C FRET data IC50
[4] = read-out: KRAS G12S FRET data, IC50
[5] = read-out: KRAS G12C FRET data, IC50
[6] = KRAS G12V, read-out: KRAS G12V FRET data IC50
[7] = read-out: KRAS G12D FRET data, IC50
[8] = KRAS WT, read-out: KRAS WT FRET data IC50

KRAS G12D, sequence (P01116 1-169 isoform P01116-2 G12D limits assumed): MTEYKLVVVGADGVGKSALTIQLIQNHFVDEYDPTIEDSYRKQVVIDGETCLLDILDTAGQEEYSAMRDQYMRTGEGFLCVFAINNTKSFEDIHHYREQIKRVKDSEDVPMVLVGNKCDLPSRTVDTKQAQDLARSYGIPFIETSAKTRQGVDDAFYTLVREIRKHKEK
KRAS G12D, sequence (P62937 whole entry): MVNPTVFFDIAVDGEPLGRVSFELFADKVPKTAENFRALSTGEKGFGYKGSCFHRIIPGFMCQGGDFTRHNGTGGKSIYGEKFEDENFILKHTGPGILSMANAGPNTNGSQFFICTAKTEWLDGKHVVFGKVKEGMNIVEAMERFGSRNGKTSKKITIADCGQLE
KRAS WT, sequence (P01116 1-169 isoform P01116-2 limits assumed): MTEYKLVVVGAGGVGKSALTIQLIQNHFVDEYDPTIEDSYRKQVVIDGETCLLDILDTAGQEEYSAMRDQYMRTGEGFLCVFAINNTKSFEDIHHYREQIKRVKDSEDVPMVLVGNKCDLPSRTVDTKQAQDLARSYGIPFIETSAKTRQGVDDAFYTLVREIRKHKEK
KRAS WT, sequence (P62937 whole entry): as the sequence (P62937 whole entry) above
KRAS G12S, sequence (P01116 1-169 isoform P01116-2 G12S limits assumed): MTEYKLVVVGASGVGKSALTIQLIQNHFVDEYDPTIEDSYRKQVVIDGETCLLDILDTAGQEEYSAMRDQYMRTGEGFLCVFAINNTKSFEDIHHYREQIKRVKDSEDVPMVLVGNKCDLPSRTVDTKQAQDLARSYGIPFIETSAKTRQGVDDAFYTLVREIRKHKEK
KRAS G12S, sequence (P62937 whole entry): as the sequence (P62937 whole entry) above
KRAS G12V, sequence (P01116 1-169 isoform P01116-2 G12V limits assumed): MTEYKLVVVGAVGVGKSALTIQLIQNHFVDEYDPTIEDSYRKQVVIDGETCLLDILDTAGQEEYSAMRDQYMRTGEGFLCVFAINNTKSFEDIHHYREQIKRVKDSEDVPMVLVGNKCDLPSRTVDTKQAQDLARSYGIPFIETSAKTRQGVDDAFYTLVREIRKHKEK
KRAS G12V, sequence (P62937 whole entry): as the sequence (P62937 whole entry) above
NRAS G12C, sequence (P01111 whole entry G12C): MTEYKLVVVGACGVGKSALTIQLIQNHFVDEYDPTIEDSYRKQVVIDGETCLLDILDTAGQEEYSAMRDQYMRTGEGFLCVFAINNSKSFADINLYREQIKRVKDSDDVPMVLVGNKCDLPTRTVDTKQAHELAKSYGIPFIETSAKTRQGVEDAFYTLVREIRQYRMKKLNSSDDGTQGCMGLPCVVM
NRAS G12C, sequence (P62937 whole entry): as the sequence (P62937 whole entry) above
NRAS WT, sequence (P01111 whole entry): as the sequence (P01111 whole entry G12C) above, with C12G counted along it
NRAS WT, sequence (P62937 whole entry): as the sequence (P62937 whole entry) above
KRAS G12C, sequence (P01116 1-169 isoform P01116-2 G12C): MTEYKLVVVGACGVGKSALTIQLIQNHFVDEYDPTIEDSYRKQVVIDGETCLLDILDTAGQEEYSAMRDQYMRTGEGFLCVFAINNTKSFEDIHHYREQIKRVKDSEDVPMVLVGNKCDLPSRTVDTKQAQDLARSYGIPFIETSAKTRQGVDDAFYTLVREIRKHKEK
KRAS G12C, sequence (P62937 whole entry): as the sequence (P62937 whole entry) above
NRAS Q61K, sequence (P01111 whole entry Q61K): as the sequence (P01111 whole entry G12C) above, with C12G, Q61K counted along it
NRAS Q61K, sequence (P62937 whole entry): as the sequence (P62937 whole entry) above
KRAS G13C, sequence (P01116 1-169 isoform P01116-2 G13C): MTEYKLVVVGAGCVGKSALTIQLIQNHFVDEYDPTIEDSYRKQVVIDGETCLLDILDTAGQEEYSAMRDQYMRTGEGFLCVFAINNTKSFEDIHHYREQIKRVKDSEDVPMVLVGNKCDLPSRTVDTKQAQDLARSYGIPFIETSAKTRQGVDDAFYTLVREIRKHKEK
KRAS G13C, sequence (P62937 whole entry): as the sequence (P62937 whole entry) above
KRAS G13D, sequence (P01116 1-169 isoform P01116-2 G13D limits assumed): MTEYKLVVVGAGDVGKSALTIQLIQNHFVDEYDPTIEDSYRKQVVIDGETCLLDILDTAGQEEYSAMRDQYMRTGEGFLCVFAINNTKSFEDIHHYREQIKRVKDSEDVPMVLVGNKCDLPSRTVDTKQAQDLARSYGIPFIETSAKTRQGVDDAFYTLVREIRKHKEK
KRAS G13D, sequence (P62937 whole entry): as the sequence (P62937 whole entry) above
KRAS Q61H, sequence (P01116 1-169 isoform P01116-2 Q61H limits assumed): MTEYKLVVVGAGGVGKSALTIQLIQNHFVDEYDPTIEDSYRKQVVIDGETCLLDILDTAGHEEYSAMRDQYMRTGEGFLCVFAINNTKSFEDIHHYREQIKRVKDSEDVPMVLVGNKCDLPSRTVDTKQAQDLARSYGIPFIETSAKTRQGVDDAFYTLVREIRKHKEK
KRAS Q61H, sequence (P62937 whole entry): as the sequence (P62937 whole entry) above
NRAS Q61R, sequence (P01111 whole entry Q61R): as the sequence (P01111 whole entry G12C) above, with C12G, Q61R counted along it
NRAS Q61R, sequence (P62937 whole entry): as the sequence (P62937 whole entry) above

SMILES | IC50 (NRAS Q61K) | IC50 (KRAS Q61H) | IC50 (NRAS Q61R) | IC50 (NRAS WT) | IC50 (NCI-H358 (K-Ras G12C)) | IC50 (Capan-1 (K-Ras G12V)) | IC50 (KRAS G13D; [1]) | IC50 (KRAS G13C; [2]) | IC50 (NRAS G12C; [3]) | IC50 (KRAS G12S; [4]) | IC50 (KRAS G12C; [5]) | IC50 (KRAS G12V; [6]) | IC50 (KRAS G12D; [7]) | IC50 (KRAS WT; [8]) | also measured
CCn1c(-c2cc(N3CCN(C)CC3)cnc2[C@H](C)OC)c2c3cc(ccc31)-c1csc(n1)C[C@H](NC(=O)[C@H](C(C)C)N(C)C(=O)[C@@H]1OCC[C@@H]1c1ccccc1)C(=O)N1CCC[C@H](N1)C(=O)OCC(C)(C)C2 (atropisomer, axis not shown) [Example A583] | 100 to 1000 nM | 10 to 100 nM | 10 to 100 nM | 100 to 1000 nM | < 10 nM | < 10 nM | 100 to 1000 nM | 100 to 1000 nM | 10 to 100 nM | 100 to 1000 nM | 10 to 100 nM | 100 to 1000 nM | 100 to 1000 nM | 100 to 1000 nM | –
CCn1c(-c2cccnc2[C@H](C)OC)c2c3cc(ccc31)-c1csc(n1)C[C@H](NC(=O)[C@H](C(C)C)N(C)C(=O)N1CC[C@@]3(CCN(C)C3=O)C1)C(=O)N1CCC[C@H](N1)C(=O)OCC(C)(C)C2 (single isomer, unassigned) [Example A495] | 100 to 1000 nM | 100 to 1000 nM | 100 to 1000 nM | 100 to 1000 nM | 10 to 100 nM | 100 to 1000 nM | 1000 to 10000 nM | 100 to 1000 nM | 100 to 1000 nM | 100 to 1000 nM | 100 to 1000 nM | 100 to 1000 nM | 1000 to 10000 nM | 100 to 1000 nM | –
CCn1c(-c2cccnc2[C@H](C)OC)c2c3cc(ccc31)-c1csc(n1)C[C@H](NC(=O)[C@H](C(C)C)N(C)C(=O)N1CC3(CC3)C1)C(=O)N1CCC[C@H](N1)C(=O)OCC(C)(C)C2 (atropisomer, axis not shown) [Example A523] | 10 to 100 nM | 10 to 100 nM | 100 to 1000 nM | 100 to 1000 nM | 10 to 100 nM | 10 to 100 nM | 100 to 1000 nM | 100 to 1000 nM | 10 to 100 nM | 100 to 1000 nM | 10 to 100 nM | 100 to 1000 nM | 100 to 1000 nM | 100 to 1000 nM | –
CCn1c(-c2cccnc2[C@H](C)OC)c2c3cc(ccc31)-c1cc(O)cc(c1)C[C@H](NC(=O)[C@H](C(C)C)N(C)C(=O)[C@H]1CCN(C(=O)OC3COC3)C1)C(=O)N1CCC[C@H](N1)C(=O)OCC(C)(C)C2 [Example A204] | 100 to 1000 nM | 10 to 100 nM | 100 to 1000 nM | 10 to 100 nM | 10 to 100 nM | 10 to 100 nM | 10 to 100 nM | 10 to 100 nM | 10 to 100 nM | 10 to 100 nM | 10 to 100 nM | 10 to 100 nM | 100 to 1000 nM | 10 to 100 nM | –
CCn1c(-c2cccnc2[C@H](C)OC)c2c3cc(ccc31)-c1csc(n1)C[C@H](NC(=O)[C@H](C(C)C)N(C)C(=O)N1C[C@H](N)[C@@H](F)C1)C(=O)N1CCC[C@H](N1)C(=O)OCC(C)(C)C2 (atropisomer, axis not shown) [Example A567] | 10 to 100 nM | 10 to 100 nM | 100 to 1000 nM | 100 to 1000 nM | 10 to 100 nM | 100 to 1000 nM | 100 to 1000 nM | 100 to 1000 nM | 10 to 100 nM | 100 to 1000 nM | 10 to 100 nM | 100 to 1000 nM | 100 to 1000 nM | 100 to 1000 nM | –
CCn1c(-c2cccnc2[C@H](C)OC)c2c3cc(ccc31)-c1csc(n1)C[C@H](NC(=O)[C@H](C(C)C)N(C)C(=O)N1CCC(N(C)C)CC1)C(=O)N1CCC[C@H](N1)C(=O)OCC(C)(C)C2 (atropisomer, axis not shown) [Example A571] | 10 to 100 nM | 10 to 100 nM | 100 to 1000 nM | 10 to 100 nM | 10 to 100 nM | 10 to 100 nM | – | – | – | – | – | – | – | – | IC50 (KRAS G13D; KRAS G13D FRET data IC50, KRAS G13D): 100 to 1000 nM; IC50 (KRAS G13C; KRAS G13C FRET data, IC50): 100 to 1000 nM; IC50 (NRAS G12C; NRAS G12C FRET data IC50, NRAS G12C): 10 to 100 nM; IC50 (KRAS G12S; KRAS G12S FRET data, IC50): 100 to 1000 nM; IC50 (KRAS G12C; KRAS G12C FRET data, IC50): 10 to 100 nM; IC50 (KRAS G12V; KRAS G12V FRET data IC50, KRAS G12V): 100 to 1000 nM; IC50 (KRAS G12D; KRAS G12D FRET data, IC50): 100 to 1000 nM; IC50 (KRAS WT; KRAS WT FRET data IC50, KRAS WT): 10 to 100 nM
CCn1c(-c2cccnc2[C@H](C)OC)c2c3cc(ccc31)-c1csc(n1)C[C@H](NC(=O)[C@H](C(C)C)N(C)C(=O)N1CC[C@@H](N(C)C)C1)C(=O)N1CCC[C@H](N1)C(=O)OCC(C)(C)C2 (atropisomer, axis not shown) [Example A566] | 10 to 100 nM | 10 to 100 nM | 100 to 1000 nM | 100 to 1000 nM | 10 to 100 nM | 10 to 100 nM | 100 to 1000 nM | 100 to 1000 nM | 100 to 1000 nM | 100 to 1000 nM | 100 to 1000 nM | 100 to 1000 nM | 100 to 1000 nM | 100 to 1000 nM | –
CCn1c(-c2cccnc2[C@H](C)OC)c2c3cc(ccc31)-c1csc(n1)C[C@H](NC(=O)[C@H](C(C)C)N(C)C(=O)N1CC[C@@H]1C(=O)NC)C(=O)N1CCC[C@H](N1)C(=O)OCC(C)(C)C2 [Example A281] | 100 to 1000 nM | 100 to 1000 nM | 1000 to 10000 nM | 1000 to 10000 nM | 100 to 1000 nM | 100 to 1000 nM | 1000 to 10000 nM | 1000 to 10000 nM | 1000 to 10000 nM | 1000 to 10000 nM | 1000 to 10000 nM | 1000 to 10000 nM | > 10000 nM | 1000 to 10000 nM | –
